The source of these data is article PMC11997890, “In Vivo and In Vitro Pharmacokinetic Studies of a Dual Topoisomerase I/II Inhibitor” (ACS Pharmacology & Translational Science, 2025).

The subject of one data set is CYP3A4. Further details: method as in not given. As to conditions: metabolized by CYP3A4; ref not given; cited from earlier work.
In a further data set the test system is OvCar8 spheroids. Put plainly: 3D spheroid viability (RealTime-Glo). The class given is cell-based, human. The following applies: OvCar8 3D spheroids, 48 h. The protocol:
Tumor complexity is represented more realistically in 3D spheroid models than in 2D monolayer models.
OvCar8 cells (8000/well) were seeded into an Ultra-Low-Attachment plate (Corning #4520) and grown for 96 h. Then, spheroids were treated with the drugs for 48 h. Cell cytotoxicity was assessed using the CellTox Green Cytotoxicity Assay (Promega #G8731) 48 h after treatment with NYONE ([…], 485Ex/520Em). Filters: BFEx/GreenEm (530/43 nm); BlueEx (475/28 nm)/GreenEm (530/43 nm). Viability and apoptosis were determined by RealTime-Glo (460Em) (Promega #G9711) and caspase-Glo 3/7 (565Em) (Promega #G8090) according to the manufacturer’s instructions using a microplate reader (Spark, Tecan). Relative caspase activity: caspase activity divided by the viability (normalized to control). For live-dead staining, cells were grown and treated as described above. Then, 80% of the medium was removed and replaced with propidium iodide (PI) (15 μM), calcein-AM (0.2 μM), and Hoechst 33342 (1.8 μM) in medium for 3 h and imaged by NYONE ([…]). Filters: BFEx/GreenEm(530/43 nm); Hoechst 33342: UVEx (377/50 nm)/BlueEm (452/45 nm); calcein-AM: BlueEx (475/28 nm)/GreenEm (530/43 nm); propidium iodide: LimeEx(562/40 nm)/RedEm(628/32 nm). All experiments were performed in biological triplicates. PBS was used as the negative control, and cisplatin and P8-D6 as the positive control.

For data set [1] the following is noted: cited from earlier work; for CL / Oral bioavailability / Protein binding / V ss / t 1/2: literature values, ref numbers not given.
Details of data set [2]: method as in not given. The following applies: human liver microsomes; ref not given; cited from earlier work.

Consider `O=C(c1cc(Cc2n[nH]c(=O)c3ccccc23)ccc1F)N1CCN(C(=O)C2CC2)CC1` [Olaparib, olaparib], for which the “rate of three major metabolites” value in the data set on CYP3A4 is on record as 8–12%.
The IC50 is the concentration at which inhibition is half-maximal. Read a high IC50 as lower potency. In the data set on OvCar8 spheroids, `N.N.[Cl][Pt][Cl]` [cisplatin, reference compound] came in with an IC50 of 13.5 µM.
Turning to `COc1cccc2c1C(=O)c1c(O)c3c(c(O)c1C2=O)C[C@@](O)(C(=O)CO)C[C@@H]3O[C@H]1C[C@H](N)[C@H](O)[C@H](C)O1` [doxorubicin], the drug eliminated in data set [1] (after 7 days, ref not given) was 25–45%. Also, in data set [1], the CL is reported as 12–34 L/(h m^2), the Oral bioavailability is listed as 5%, the Protein binding is reported as 50–85% and the V ss is on record as 809–1214 L/m^2. In addition, the “t 1/2” value in data set [1] was 17.3 to 26 h.
With `COc1cc([C@@H]2c3cc4c(cc3[C@@H](O[C@@H]3O[C@@H]5CO[C@@H](C)O[C@H]5[C@H](O)[C@H]3O)[C@H]3COC(=O)[C@H]23)OCO4)cc(OC)c1O` [etoposide], in data set [1], the CL was 1–2 L/(h m^2), the Oral bioavailability is 50 (40–75) %, the Protein binding is listed as 94–95% and the V ss is 7.1 (5–17) L/m^2. For the same compound, in data set [1], the “t 1/2” value was 6.4 h.
Regarding `COc1cc2ncnc(Nc3ccc(F)c(Cl)c3)c2cc1OCCCN1CCOCC1` [gefitinib], the Protein binding in data set [1] is listed as greater than 97%.
With `CCc1c2c(nc3ccc(OC(=O)N4CCC(N5CCCCC5)CC4)cc13)-c1cc3c(c(=O)n1C2)COC(=O)[C@]3(O)CC` [irinotecan], in data set [1], the Protein binding was 65%.
Take `CC[C@@]1(O)C(=O)OCc2c1cc1n(c2=O)Cc2c-1nc1cc3c(cc1c2CN1CCN(C)CC1)OCCO3` [lurtotecan]: in data set [1], the CL is 60 L/(h m^2), the Oral bioavailability is listed as 11.3 ± 5.2%, the Protein binding is 90% and the V ss is given as 190 L/m^2. Besides, the “t 1/2” value in data set [1] is 3.7 h.
In the case of `CC[C@@]1(O)C(=O)OCc2c1cc1n(c2=O)Cc2cc3c(CN(C)C)c(O)ccc3nc2-1` [topotecan], the “mean ratio of N-demethylated metabolite to topotecan” value in data set [2] is “approximately 3%”. Moreover, in data set [1], the CL is 14–34 L/(h m^2), the Oral bioavailability is reported as 32–44%, the Protein binding is given as 7–35% and the “t 1/2” value is 3.1 to 4 h.
